According to paper PMC7855930, “Nontoxic Cobalt(III) Schiff Base Complexes with Broad‐Spectrum Antifungal Activity” (Chemistry (Weinheim an Der Bergstrasse, Germany), 2020):
Like-named read-outs stand apart in the source and are kept apart here.

Assays:
[1] = system: human red blood cells; assay: Haemolysis assay; type: cell-based; settings: 1 h at 37 °C
Protocol: Haemolysis assay: Human whole blood (Australian Red Cross Blood Service) was washed three times with three volumes of 0.9 % NaCl and resuspended in a concentration of 0.5×10^8 cells mL^−1, determined by manual cell count in a Neubauer haemocytometer. Washed cells were added to compound containing plates (384‐well round bottom polypropylene plates, Corning 3657) for a final volume of 50 μL, shaken for 10 min and incubated for 1 h at 37 °C, without shaking. After incubation, the plates were centrifuged at 1000 g for 10 min to pellet cells and debris, 25 μL of the supernatant was then transferred to reading plates (384‐well flat bottom polystyrene plates, Corning CLS3680), with haemolysis determined by measuring the supernatant absorbance at […] (OD405), using cells without inhibitors as negative control and cells with 1 % Triton X‐100 (Sigma T8787) as positive control. HC10 and HC50 (concentration at which 10 and 50 % haemolysis is induced, respectively) were calculated by curve fitting the inhibition values vs. log(concentration) of four replicates using a sigmoidal dose–response function with variable fitting values for top, bottom and slope using Prism 8. Melittin (Sigma M2272) was used as positive haemolytic control on each plate. Human ethics approval from the University of Queensland Institutional Human Research Ethics Committee was obtained for use of human blood for haemolysis studies (approval number 201400003).

[2] = system: C. albicans ATCC 90028; assay: Antifungal MIC assay (broth microdilution in YNB); type: cell-based, Candida albicans
Source text: (§1) Yeast strains: Candida albicans (ATCC 90028, NCCLS 11), Cryptococcus neoformans (ATCC 208821, H99 type strain), Candida tropicalis (ATCC 750, type strain), Candida glabrata (ATCC 90030, NCCLS 84) and Cryptococcus deuterogattii (ATCC 32609, type strain) were obtained from the American Type Culture Collection (ATCC). Cryptococcus deuterogattii (CBS 7750), Candida auris (CBS 10913) and Candida auris (CBS 12373) were obtained from the CBS‐KNAW culture collection. The strains were maintained on glycerol/YPD (yeast extract‐peptone dextrose) broth (20:80 v/v) at −80 °C.
(§2) Antifungal minimum inhibitory concentration (MIC) assay: The cobalt complexes and antifungal control compounds were serially diluted in 50 μL of Yeast Nitrogen Broth (YNB; BD, Cat No. 233520 supplemented with 2 % glucose and 10 mM ammonium sulfate) two‐fold across the wells of non‐binding surface (NBS) 96‐well plates (Corning; Cat. No. 3641). Plates were set up in quadruplicate for each strain tested, and two biological replicates were conducted on separate assay days.
(§3) Yeast strains were cultured from glycerol onto YPD (Becton Dickinson 242720) agar at 30 °C for 72 h. For each strain, a minimum of five single colonies were taken from the agar plate and dissolved in sterile water and adjusted to form a yeast suspension of 1×10^6 to 5×10^6 CFU mL^−1 (as determined by OD530). The suspension was subsequently diluted into YNB media, and added to each well of the compound containing plates, giving a final cell density of 2.5×10^3 CFU mL^−1 and a total volume of 100 μL. Plates were covered and incubated at 35 °C for 36 h without shaking.
(§4) Growth inhibition of all strains was determined visually where the MIC was recorded as the lowest compound concentration with no visible growth. Fluconazole (Sigma F8929), ketoconazole (Sigma K1003) and micafungin (Sigma SML2288) were used as internal positive inhibitor controls for every strain tested.

[3] = system: C. deuterogattii ATCC 32609; assay: Antifungal MIC assay (broth microdilution in YNB); type: cell-based, Cryptococcus deuterogattii
Source text: as §1, §2, §3, §4

[4] = system: C. tropicalis ATCC 750; assay: Antifungal MIC assay (broth microdilution in YNB); type: cell-based, Candida tropicalis
Source text: as §1, §2, §3, §4

[5] = system: C. glabrata ATCC 90030; assay: Antifungal MIC assay (broth microdilution in YNB); type: cell-based, Candida glabrata
Source text: as §1, §2, §3, §4

[6] = system: Escherichia coli ATCC 25922; assay: CO-ADD bacterial broth microdilution MIC assay; type: cell-based; settings: CAMHB, 37 °C, 18 h, ≥ 80% inhibition; for MIC: Escherichia coli, ATCC25922, read-out: MIC Ec (Escherichia coli ATCC 25922)
Protocol: (§5) CO-ADD High Throughput Screening
(§6) Bacterial broth microdilution minimum inhibitory concentration (MIC) assay Bacterial strains were cultured in Cation-adjusted Mueller Hinton broth (CAMHB; Bacto Laboratories 212322) at 37 °C overnight. A sample of each culture was then diluted 40-fold in fresh CAMHB and incubated at 37 °C for 1.5-3 h. The resultant mid-log phase cultures were diluted with CAMHB (CFU/mL measured by OD600), then added to each well of the compound-containing plates (384-well non-binding surface (NBS) plates; Corning CLS3640), giving a cell density of 5 × 10^5 CFU/mL and a total volume of 50 µL. Plates were covered and incubated at 37 °C for 18 h without shaking. Inhibition of bacterial growth was determined measuring absorbance at 600 nm (OD600), using media only as negative control and bacteria without inhibitors as positive control. MIC values were determined as the lowest concentration at which the growth was inhibited at ≥ 80%. Colistin sulfate (Sigma C4461) and vancomycin HCl (Sigma 861987) were used as positive inhibitor controls on each plate for Gram-negative and Gram-positive bacteria, respectively.
(§7) Figure S1. 1H NMR (400 MHz) of [Co(ATS)(DMAP)2]NO3 (3) in DMSO-d6.
(§8) (1 picture or pasted object on this page, not shown here)

[7] = system: Staphylococcus aureus ATCC 43300 (MRSA); assay: CO-ADD bacterial broth microdilution MIC assay; type: cell-based; settings: CAMHB, 37 °C, 18 h, ≥ 80% inhibition; for MIC: Staphylococcus aureus, read-out: MIC Sa (Staphylococcus aureus ATCC 43300, MRSA)
Protocol: as §5, §6, §7, §8

[8] = system: Acinetobacter baumannii ATCC 19606; assay: CO-ADD bacterial broth microdilution MIC assay; type: cell-based; settings: CAMHB, 37 °C, 18 h, ≥ 80% inhibition; for MIC: Acinetobacter baumannii, ATCC19606, read-out: MIC Ab (Acinetobacter baumannii ATCC 19606)
Protocol: as §5, §6, §7, §8

[9] = system: Pseudomonas aeruginosa ATCC 27853; assay: CO-ADD bacterial broth microdilution MIC assay; type: cell-based; settings: CAMHB, 37 °C, 18 h, ≥ 80% inhibition; for MIC: Pseudomonas aeruginosa, ATCC27853, read-out: MIC Pa (Pseudomonas aeruginosa ATCC 27853)
Protocol: as §5, §6, §7, §8

[10] = system: C. neoformans ATCC 208821; assay: Antifungal MIC assay (broth microdilution in YNB); type: cell-based, Cryptococcus neoformans
Source text: as §1, §2, §3, §4

[11] = range of MICs, n=8, 35 °C, 36 h, visual, read-out: MIC C. deuterogattii ATCC 32609
[12] = range of MICs, n=8, 35 °C, 36 h, visual, read-out: MIC C. tropicalis ATCC 750
[13] = range of MICs, n=8, 35 °C, 36 h, visual, read-out: MIC C. glabrata ATCC 90030
[14] = range of MICs, n=8, 35 °C, 36 h, visual, read-out: MIC C. neoformans ATCC 208821
[15] = Candida albicans, ATCC90028, Table S1, read-out: MIC Candida albicans ATCC 90028
[16] = Candida albicans, ATCC90028, range of MICs, n=8, 35 °C, 36 h, visual, read-out: MIC C. albicans ATCC 90028
[17] = Cryptococcus deuterogattii, ATCC32609, Table S1, read-out: MIC Cryptococcus deuterogattii ATCC 32609
[18] = Cryptococcus deuterogattii, ATCC32609, range of MICs, n=8, 35 °C, 36 h, visual, read-out: MIC C. deuterogattii ATCC 32609
[19] = Candida tropicalis, ATCC750, Table S1, read-out: MIC Candida tropicalis ATCC 750
[20] = Candida tropicalis, ATCC750, range of MICs, n=8, 35 °C, 36 h, visual, read-out: MIC C. tropicalis ATCC 750
[21] = Nakaseomyces glabratus, ATCC90030, Table S1, read-out: MIC Candida glabrata ATCC 90030
[22] = Nakaseomyces glabratus, ATCC90030, range of MICs, n=8, 35 °C, 36 h, visual, read-out: MIC C. glabrata ATCC 90030
[23] = Cryptococcus neoformans, ATCC208821, Table S1, read-out: MIC Cryptococcus neoformans ATCC 208821
[24] = Cryptococcus neoformans, ATCC208821, range of MICs, n=8, 35 °C, 36 h, visual, read-out: MIC C. neoformans ATCC 208821

Row | MIC [2, 15] | MIC [2, 16] | MIC [3, 17] | MIC [3, 18] | MIC [4, 19] | MIC [4, 20] | Compound | Haem HC10 (concentration at which 10 % haemolysis is reached) [1] | MIC Candida albicans ATCC 90028 ([2]; Table S1) | MIC Cryptococcus deuterogattii ATCC 32609 ([3]; Table S1) | MIC [3, 11] | MIC Candida tropicalis ATCC 750 ([4]; Table S1) | MIC [4, 12] | MIC Candida glabrata ATCC 90030 ([5]; Table S1) | MIC [5, 13] | MIC Ec (Escherichia coli ATCC 25922) [6] | MIC Sa (Staphylococcus aureus ATCC 43300, MRSA) [7] | MIC Ab (Acinetobacter baumannii ATCC 19606) [8] | MIC Pa (Pseudomonas aeruginosa ATCC 27853) [9] | MIC Cryptococcus neoformans ATCC 208821 ([10]; Table S1) | MIC [10, 14] | further results
1 | – | – | – | – | – | – | O=[N+]([O-])[O-].[NH3+][Co-3]123([NH3+])[O]c4c(F)cccc4C=[N+]1c1ccccc1[N+]2=Cc1cccc(F)c1[O]3 [Compound 7, [Co(3F‐salophen)(NH3)2]NO3] | >100 µM | 23.9 to 47.8 µg/mL | 47.8 µg/mL | 100 µM | 47.8 µg/mL | 100 µM | 47.8 µg/mL | 100 µM | > 32 µg/mL | > 32 µg/mL | > 32 µg/mL | > 32 µg/mL | 47.8 µg/mL | 100 µM | MIC C. albicans ATCC 90028 ([2]; range of MICs, n=8, 35 °C, 36 h, visual): 50 to 100 µM
2 | > 23.2 µg/mL | > 100 µM | > 23.2 µg/mL | > 100 µM | > 23.2 µg/mL | > 100 µM | CC(=N\NC(N)=S)/C(C)=N/NC(N)=S [Compound L1] | >100 µM | – | – | – | – | – | – | – | – | – | – | – | – | – | MIC [5, 21]: > 23.2 µg/mL; MIC [5, 22]: > 100 µM; MIC [6]: > 32 µg/mL; MIC [7]: > 32 µg/mL; MIC [8]: > 32 µg/mL; MIC [9]: > 32 µg/mL; MIC [10, 23]: > 23.2 µg/mL; MIC [10, 24]: > 100 µM
3 | > 30.4 µg/mL | > 100 µM | > 30.4 µg/mL | 100 µM | > 30.4 µg/mL | > 100 µM | Oc1c(F)cccc1/C=N/CC/N=C/c1cccc(F)c1O [Compound L3] | >100 µM | – | – | – | – | – | – | – | – | – | – | – | – | – | MIC [5, 21]: > 30.4 µg/mL; MIC [5, 22]: > 100 µM; MIC [6]: > 32 µg/mL; MIC [7]: > 32 µg/mL; MIC [8]: > 32 µg/mL; MIC [9]: > 32 µg/mL; MIC [10, 23]: > 30.4 µg/mL; MIC [10, 24]: 100 µM
4 | – | – | – | – | – | – | O=[N+]([O-])[O-].O=[N+]([O-])[O-].[Co+2] [Co, Co(NO3)2, reference compound] | >100 µM | > 29.1 µg/mL | > 29.1 µg/mL | >100 µM | > 29.1 µg/mL | >100 µM | > 29.1 µg/mL | >100 µM | > 32 µg/mL | > 32 µg/mL | > 32 µg/mL | > 32 µg/mL | > 29.1 µg/mL | >100 µM | MIC ([2]; range of MICs, n=8, 35 °C, 36 h, visual, read-out: MIC C. albicans ATCC 90028): >100 µM
